According to the CheMixHub viscosity set:
± gives the uncertainty stated by the source.

Assay: xn = mol fraction of the nth substance listed

## NC(N)=O + O
293.15 K, 100 kPa, x1 = 0.00045
  viscosity: 1.018 ± 0.022 mPa·s
293.15 K, 100 kPa, x1 = 0.0009
  viscosity: 1.027 ± 0.022 mPa·s
293.15 K, 100 kPa, x1 = 0.0013
  viscosity: 1.041 ± 0.022 mPa·s
293.15 K, 101 kPa, x1 = 0.0003382
  viscosity: 1.002 ± 0.0068 mPa·s
293.15 K, 101 kPa, x1 = 0.0005695
  viscosity: 1.003 ± 0.0068 mPa·s
293.15 K, 101 kPa, x1 = 0.0009893
  viscosity: 1.003 ± 0.0068 mPa·s
293.15 K, 101 kPa, x1 = 0.001265
  viscosity: 1.004 ± 0.0068 mPa·s
293.15 K, 101 kPa, x1 = 0.00161
  viscosity: 1.004 ± 0.0068 mPa·s
293.15 K, 101 kPa, x1 = 0.002015
  viscosity: 1.005 ± 0.0068 mPa·s
293.15 K, 101 kPa, x1 = 0.002546
  viscosity: 1.006 ± 0.0068 mPa·s
293.15 K, 101 kPa, x1 = 0.002806
  viscosity: 1.006 ± 0.0069 mPa·s
293.15 K, 101 kPa, x1 = 0.0486
  viscosity: 0.872 ± 0.12 mPa·s
293.15 K, 101 kPa, x1 = 0.0994
  viscosity: 0.991 ± 0.15 mPa·s
293.15 K, 101 kPa, x1 = 0.1318
  viscosity: 1.087 ± 0.17 mPa·s
294.75 K, 101 kPa, x1 = 0.0219
  viscosity: 0.9356 ± 0.026 mPa·s
294.75 K, 101 kPa, x1 = 0.04201
  viscosity: 1.072 ± 0.029 mPa·s
294.75 K, 101 kPa, x1 = 0.05343
  viscosity: 1.101 ± 0.03 mPa·s
294.75 K, 101 kPa, x1 = 0.0565
  viscosity: 1.157 ± 0.032 mPa·s
298.15 K, 100 kPa, x1 = 0.00045
  viscosity: 0.911 ± 0.019 mPa·s
298.15 K, 100 kPa, x1 = 0.0009
  viscosity: 0.927 ± 0.02 mPa·s
298.15 K, 100 kPa, x1 = 0.0013
  viscosity: 0.94 ± 0.02 mPa·s
298.15 K, 101 kPa, x1 = 0.0003802
  viscosity: 0.8909 ± 0.0061 mPa·s
298.15 K, 101 kPa, x1 = 0.0009168
  viscosity: 0.8918 ± 0.0061 mPa·s
298.15 K, 101 kPa, x1 = 0.001355
  viscosity: 0.8925 ± 0.0061 mPa·s
298.15 K, 101 kPa, x1 = 0.00169
  viscosity: 0.893 ± 0.0062 mPa·s
298.15 K, 101 kPa, x1 = 0.001993
  viscosity: 0.8935 ± 0.0062 mPa·s
298.15 K, 101 kPa, x1 = 0.00247
  viscosity: 0.8943 ± 0.0062 mPa·s
298.15 K, 101 kPa, x1 = 0.00308
  viscosity: 0.895 ± 0.18 mPa·s
298.15 K, 101 kPa, x1 = 0.003109
  viscosity: 0.8953 ± 0.0062 mPa·s
298.15 K, 101 kPa, x1 = 0.00368
  viscosity: 0.8962 ± 0.0062 mPa·s
298.15 K, 101 kPa, x1 = 0.0259
  viscosity: 0.939 ± 0.19 mPa·s
298.15 K, 101 kPa, x1 = 0.0389
  viscosity: 0.969 ± 0.19 mPa·s
298.15 K, 101 kPa, x1 = 0.05204
  viscosity: 1.035 ± 0.21 mPa·s
298.15 K, 101 kPa, x1 = 0.08275
  viscosity: 1.088 ± 0.22 mPa·s
298.15 K, 101 kPa, x1 = 0.1302
  viscosity: 1.252 ± 0.25 mPa·s
298.15 K, 101 kPa, x1 = 0.156
  viscosity: 1.348 ± 0.27 mPa·s
298.15 K, 101 kPa, x1 = 0.2047
  viscosity: 1.561 ± 0.31 mPa·s
303.15 K, 100 kPa, x1 = 0.00045
  viscosity: 0.824 ± 0.018 mPa·s
303.15 K, 100 kPa, x1 = 0.0009
  viscosity: 0.839 ± 0.018 mPa·s
303.15 K, 100 kPa, x1 = 0.0013
  viscosity: 0.849 ± 0.018 mPa·s
303.15 K, 101 kPa, x1 = 0.000464
  viscosity: 0.798 ± 0.0056 mPa·s
303.15 K, 101 kPa, x1 = 0.001107
  viscosity: 0.799 ± 0.0056 mPa·s
303.15 K, 101 kPa, x1 = 0.001607
  viscosity: 0.7999 ± 0.0056 mPa·s
303.15 K, 101 kPa, x1 = 0.002024
  viscosity: 0.8005 ± 0.0056 mPa·s
303.15 K, 101 kPa, x1 = 0.002271
  viscosity: 0.8009 ± 0.0056 mPa·s
303.15 K, 101 kPa, x1 = 0.002742
  viscosity: 0.8016 ± 0.0056 mPa·s
303.15 K, 101 kPa, x1 = 0.003158
  viscosity: 0.8024 ± 0.0056 mPa·s
303.15 K, 101 kPa, x1 = 0.003416
  viscosity: 0.8028 ± 0.0056 mPa·s
308.15 K, 100 kPa, x1 = 0.00045
  viscosity: 0.744 ± 0.016 mPa·s
308.15 K, 100 kPa, x1 = 0.0009
  viscosity: 0.755 ± 0.016 mPa·s
308.15 K, 100 kPa, x1 = 0.0013
  viscosity: 0.77 ± 0.016 mPa·s
308.15 K, 101 kPa, x1 = 0.0003775
  viscosity: 0.7197 ± 0.0051 mPa·s
308.15 K, 101 kPa, x1 = 0.0006463
  viscosity: 0.7201 ± 0.0051 mPa·s
308.15 K, 101 kPa, x1 = 0.001149
  viscosity: 0.721 ± 0.0051 mPa·s
308.15 K, 101 kPa, x1 = 0.001425
  viscosity: 0.7214 ± 0.0051 mPa·s
308.15 K, 101 kPa, x1 = 0.001907
  viscosity: 0.7223 ± 0.0051 mPa·s
308.15 K, 101 kPa, x1 = 0.002218
  viscosity: 0.7227 ± 0.0051 mPa·s
308.15 K, 101 kPa, x1 = 0.002872
  viscosity: 0.7238 ± 0.0051 mPa·s
308.15 K, 101 kPa, x1 = 0.003309
  viscosity: 0.7246 ± 0.0051 mPa·s
308.15 K, 101 kPa, x1 = 0.018
  viscosity: 0.65 ± 0.014 mPa·s
308.15 K, 101.33 kPa, x1 = 0.0177
  viscosity: 0.7612 ± 0.0068 mPa·s
308.15 K, 101.33 kPa, x1 = 0.03479
  viscosity: 0.7944 ± 0.0071 mPa·s
308.15 K, 101.33 kPa, x1 = 0.05127
  viscosity: 0.8302 ± 0.0074 mPa·s
308.15 K, 101.33 kPa, x1 = 0.06723
  viscosity: 0.8754 ± 0.0078 mPa·s
308.15 K, 101.33 kPa, x1 = 0.08263
  viscosity: 0.916 ± 0.0081 mPa·s
308.15 K, 101.33 kPa, x1 = 0.09755
  viscosity: 0.9544 ± 0.0084 mPa·s
308.15 K, 101.33 kPa, x1 = 0.112
  viscosity: 1.02 ± 0.009 mPa·s
308.15 K, 101.33 kPa, x1 = 0.126
  viscosity: 1.049 ± 0.0092 mPa·s
308.15 K, 101.33 kPa, x1 = 0.1395
  viscosity: 1.077 ± 0.0094 mPa·s
313.15 K, 100 kPa, x1 = 0.00045
  viscosity: 0.678 ± 0.014 mPa·s
313.15 K, 100 kPa, x1 = 0.0009
  viscosity: 0.692 ± 0.015 mPa·s
313.15 K, 100 kPa, x1 = 0.0013
  viscosity: 0.712 ± 0.015 mPa·s
313.15 K, 101.33 kPa, x1 = 0.0177
  viscosity: 0.6912 ± 0.0062 mPa·s
313.15 K, 101.33 kPa, x1 = 0.03479
  viscosity: 0.7169 ± 0.0065 mPa·s
313.15 K, 101.33 kPa, x1 = 0.05127
  viscosity: 0.7568 ± 0.0068 mPa·s
313.15 K, 101.33 kPa, x1 = 0.06723
  viscosity: 0.7895 ± 0.0071 mPa·s
313.15 K, 101.33 kPa, x1 = 0.08263
  viscosity: 0.8365 ± 0.0074 mPa·s
313.15 K, 101.33 kPa, x1 = 0.09755
  viscosity: 0.8702 ± 0.0077 mPa·s
313.15 K, 101.33 kPa, x1 = 0.112
  viscosity: 0.914 ± 0.0081 mPa·s
313.15 K, 101.33 kPa, x1 = 0.126
  viscosity: 0.9479 ± 0.0084 mPa·s
313.15 K, 101.33 kPa, x1 = 0.1395
  viscosity: 0.9819 ± 0.0087 mPa·s
318.15 K, 101 kPa, x1 = 0.018
  viscosity: 0.533 ± 0.011 mPa·s
318.15 K, 101.33 kPa, x1 = 0.0177
  viscosity: 0.6293 ± 0.0057 mPa·s
318.15 K, 101.33 kPa, x1 = 0.03479
  viscosity: 0.6557 ± 0.006 mPa·s
318.15 K, 101.33 kPa, x1 = 0.05127
  viscosity: 0.6939 ± 0.0063 mPa·s
318.15 K, 101.33 kPa, x1 = 0.06723
  viscosity: 0.7263 ± 0.0066 mPa·s
318.15 K, 101.33 kPa, x1 = 0.08263
  viscosity: 0.7712 ± 0.0069 mPa·s
318.15 K, 101.33 kPa, x1 = 0.09755
  viscosity: 0.7978 ± 0.0072 mPa·s
318.15 K, 101.33 kPa, x1 = 0.112
  viscosity: 0.8423 ± 0.0075 mPa·s
318.15 K, 101.33 kPa, x1 = 0.126
  viscosity: 0.8735 ± 0.0078 mPa·s
318.15 K, 101.33 kPa, x1 = 0.1395
  viscosity: 0.9047 ± 0.0081 mPa·s
323.15 K, 101.33 kPa, x1 = 0.0177
  viscosity: 0.5841 ± 0.0054 mPa·s
323.15 K, 101.33 kPa, x1 = 0.03479
  viscosity: 0.6023 ± 0.0055 mPa·s
323.15 K, 101.33 kPa, x1 = 0.05127
  viscosity: 0.6485 ± 0.0059 mPa·s
323.15 K, 101.33 kPa, x1 = 0.06723
  viscosity: 0.6694 ± 0.0061 mPa·s
323.15 K, 101.33 kPa, x1 = 0.08263
  viscosity: 0.7012 ± 0.0064 mPa·s
323.15 K, 101.33 kPa, x1 = 0.09755
  viscosity: 0.7261 ± 0.0066 mPa·s
323.15 K, 101.33 kPa, x1 = 0.112
  viscosity: 0.7788 ± 0.007 mPa·s
323.15 K, 101.33 kPa, x1 = 0.126
  viscosity: 0.803 ± 0.0072 mPa·s
323.15 K, 101.33 kPa, x1 = 0.1395
  viscosity: 0.8273 ± 0.0074 mPa·s
